Experimental data: patent publication US20250270180A1, “MEK INHIBITORS AND THERAPEUTIC USES THEREOF” (Immuneering Corporation, priority 2020, published 2025)

Test system: A549 pERK
Test: A549-pERK, 2 h (quantitative Western, Jess)
Format: cell-based
Details: Homo sapiens, A549, 2 h, phospho:total ratio normalized to DMSO control; for activity at 0.01 µM: 10 nM
Description: A549 or […] cells were treated in duplicate for two hours with compounds at varying concentrations. After two hours, the cells were lysed, snap frozen, and stored at −80° C. After storage, the lysate was quantified with the Bradford assay. Before the lysates were prepared to run on the Jess, the lysates were diluted to 1 mg/mL for pERK analysis and 1.5 mg/mL pMEK analysis using quantitative Western blotting. ERK and MEK phosphorylation levels were estimated by taking the ratio of phospho-protein to total protein and normalizing to the DMSO control. The results of this study are described in Tables 14-16.

Row | Structure (SMILES) | activity at 0.01 µM [%] | activity at 10 µM [%]
1 | CNS(=O)(=O)Nc1cccc(Cc2c(CN3CC(C#N)C3)c3ccc(OC(=O)N(C)C)cc3oc2=O)c1F [Compound 172] | 111 | –
2 | CNS(=O)(=O)Nc1cccc(Cc2c(CN3CC4CC3CN4)c3ccc(OC(=O)N(C)C)cc3oc2=O)c1F (stereo not shown) [Compound 138] | 96.9 | –
3 | CNS(=O)(=O)Nc1cccc(Cc2c(CNC(=O)c3c[nH]nn3)c3ccc(OC(=O)N(C)C)cc3oc2=O)c1F [Compound 211] | 121 | 70.8
4 | CNS(=O)(=O)Nc1cccc(Cc2c(CNc3nccs3)c3ccc(OC(=O)N(C)C)cc3oc2=O)c1F [Compound 94] | 93.5 | –
5 | CNS(=O)(=O)Nc1cccc(Cc2c(CN(C)c3ccccc3Cl)c3ccc(OC(=O)N(C)C)cc3oc2=O)c1F [Compound 99] | 98.9 | –
6 | CNS(=O)(=O)Nc1cccc(Cc2c(CNCc3cccc(C(F)(F)F)c3)c3ccc(OC(=O)N(C)C)cc3oc2=O)c1F [Compound 59] | 105 | –
7 | CCN1CCN(Cc2c(Cc3cccc(NS(=O)(=O)NC)c3F)c(=O)oc3cc(OC(=O)N(C)C)ccc23)CC1=O [Compound 69] | 101 | –
8 | CNS(=O)(=O)Nc1cccc(Cc2c(CNCCC(F)(F)F)c3ccc(OC(=O)N(C)C)cc3oc2=O)c1F [Compound 66] | 104 | –
9 | CNS(=O)(=O)Nc1cccc(Cc2c(CNCC(=O)O)c3cc(Cl)c(OC(=O)N(C)C)cc3oc2=O)c1F [Compound 133] | 88.1 | 23.4
10 | CNS(=O)(=O)Nc1cccc(Cc2c(CN3CCNC(=O)CC3)c3ccc(OC(=O)N(C)C)cc3oc2=O)c1F [Compound 158] | 80 | –
11 | CNS(=O)(=O)Nc1cccc(Cc2c(CNc3ccccc3)c3ccc(OC(=O)N(C)C)cc3oc2=O)c1F [Compound 30] | 54.3 | –
12 | CNS(=O)(=O)Nc1cccc(Cc2c(CN3CCC4(CN(C)C4)C3)c3ccc(OC(=O)N(C)C)cc3oc2=O)c1F [Compound 159] | 82.7 | –
13 | CNS(=O)(=O)Nc1cccc(Cc2c(CC(=O)N3CC(OC)C3)c3ccc(OC(=O)N(C)C)cc3oc2=O)c1F [Compound 216] | 89.5 | 4.51
14 | CNC1CN(Cc2c(Cc3cccc(NS(=O)(=O)NC)c3F)c(=O)oc3cc(OC(=O)N(C)C)ccc23)C1 [Compound 164] | 102 | –
15 | CNS(=O)(=O)Nc1cccc(Cc2c(CNCc3ccncc3)c3ccc(OC(=O)N(C)C)cc3oc2=O)c1F [Compound 29] | 96 | –
16 | CNS(=O)(=O)Nc1cccc(Cc2c(CNC(C)c3ccccc3)c3ccc(OC(=O)N(C)C)cc3oc2=O)c1F (stereo not shown) [Compound 63] | 88 | –
17 | CNS(=O)(=O)Nc1cccc(Cc2c(CNCC(=O)Nc3ccccc3)c3ccc(OC(=O)N(C)C)cc3oc2=O)c1F [Compound 223] | 119 | 3.04
18 | CNS(=O)(=O)Nc1cccc(Cc2c(CC(=O)Nc3ccn[nH]3)c3ccc(OC(=O)N(C)C)cc3oc2=O)c1F [Compound 202] | 119 | –
19 | CNS(=O)(=O)Nc1cccc(Cc2c(CN3CCOCC3=O)c3ccc(OC(=O)N(C)C)cc3oc2=O)c1F [Compound 181] | 100 | 22.2
20 | CNS(=O)(=O)Nc1cccc(Cc2c(CC(=O)N(C)CC#N)c3ccc(OC(=O)N(C)C)cc3oc2=O)c1F [Compound 198] | 109 | –
21 | CNS(=O)(=O)Nc1cccc(Cc2c(CNc3ccc(OC)nc3)c3ccc(OC(=O)N(C)C)cc3oc2=O)c1F [Compound 193] | 90.7 | –
22 | CNS(=O)(=O)Nc1cccc(Cc2c(CNCCCCO)c3ccc(OC(=O)N(C)C)cc3oc2=O)c1F [Compound 71] | 99.4 | –
23 | CNS(=O)(=O)Nc1cccc(Cc2c(CNCC(=O)N(C)C)c3ccc(OC(=O)N(C)C)cc3oc2=O)c1F [Compound 57] | 106 | 7.33
24 | CNS(=O)(=O)Nc1nccc(Cc2c(CN(C)C)c3ccc(OC(=O)N(C)C)cc3oc2=O)c1F [Compound 124] | 94.6 | –
25 | CNS(=O)(=O)Nc1cccc(Cc2c(CN3CCN(C4CC4)CC3)c3ccc(OC(=O)N(C)C)cc3oc2=O)c1F [Compound 64] | 73 | –
